Legend:
[1] = test system: CD1 mice; assay: swimming test in CD1 mice, antidepressant action of inhaled terpenes versus imipramine; type: in vivo; conditions: for isoeffect dose per body weight taking into account mean absorption factor (60%): 700x0.6, inhaling; for isoeffect dose with respect to imipramine: individual single inhalation giving approximately the same immobility time as imipramine, vaporized dose; for intrinsic activity (full agonist action, dose-effect comparison with imipramine): swimming test, inhaled; for antidepressant activity: vaporized, inhaled for 24 hours (12+12 hours); for isoeffect dose per body weight: versus 30 mg/kg of imipramine
Description: 4. For each test, CD-1® (ICR) Specific Pathogen Free NAF mice (16/18 g upon arrival) were used, originating from the supplier facility Charles River Laboratories, Calco, Italy; 5 mice for the control group, 5 mice for the reference test with imipramine, 5 mice for the substance tested in the first 4 tests and then 10 mice for all the other tests. The choice of CD1 mice was determined by the fact that it is considered to be the animal model suitable for performing the swimming test for the evaluation of substances having an antidepressant action.
5. For terpene vaporization, “Elettromatt Turispharma” electric vaporizers were used (PCT/EP 97/01897, inventors Bevilacqua M, Zaccagna C A), heated to a constant temperature of 90° C.
The three groups of mice were placed in three transparent plastic boxes with the size of 150 cm×75 cm and a volume di […] at a controlled temperature (19.0-21.0° C.), in air prefiltered with an HEPA absolute filter without flow, humidity (40-50%) and darkness/light cycle (12 hours/12 hours).
The control group received the carrier (physiological solution) by IP pathway.
The administration path of the substances being considered was intraperitoneal for imipramine and the pulmonary path was used for the terpene substances being considered, always vaporized with the same electric vaporizers.
Reference test substance: imipramine 30 mg/Kg/ip=30.000 mcg/Kg/ip, equal to 0.6 mg per animal, administered 30 minutes before the test.
Subsequent tests were performed with the individual components (35 mg repeated after 12 hours), in pairs (35 mg+35 mg, repeated after 12 hours) and then all three together (35+35+35 mg repeated after 12 hours).
The treatment was performed 30 minutes before the test for the control group and for the imipramine group intraperitoneally. The third group was subject, after the T0 test, to vaporization for 24 hours (12+12 hours) of the anonymous substance being considered.

[2] = test system: mouse; conditions: cited from earlier work
[3] = cited from earlier work
[4] = test system: rat; conditions: cited from earlier work
[5] = test system: mouse; conditions: cited from earlier work; remark: listed apart in the source
[6] = in vivo; cited from earlier work
[7] = rat; cited from earlier work
[8] = inhalation for 2 hours during a 50 W workload, healthy volunteers; cited from earlier work
[9] = test system: rats; conditions: inhaling, swimming test; cited from earlier work
[10] = cited from earlier work; remark: listed apart in the source
[11] = test system: patients with bulimia; conditions: followed on for two years; cited from earlier work
[12] = 200 and 400 mg/kg orally, mouse

**Q.** With CC12CCC(CC1)C(C)(C)O2 [1,8-cineol] as the compound, how does the “isoeffect dose per body weight taking into account mean absorption factor (60%)” value [1] read?
**A.** 420 mg/kg

**Q.** And the “isoeffect dose with respect to imipramine” value [1]?
**A.** 70 mg

**Q.** What about the “intrinsic activity (full agonist action, dose-effect comparison with imipramine)” value [1] of the same compound?
**A.** 1

**Q.** What about the antidepressant activity [1] of the same compound?
**A.** evident antidepressant activity

**Q.** What about the “isoeffect dose per body weight” value [1] of the same compound?
**A.** 700 mg/kg

**Q.** What about the “acute toxicity, oral dose” value [2] of the same compound?
**A.** 2480 mg/kg

**Q.** What about the “time to detection in blood after inhaling” value [3] of the same compound?
**A.** 5 min

**Q.** What about the “time to concentration maximum in blood” value ([3]; inhaling) of the same compound?
**A.** ≤ 18 min

**Q.** And the “effect of pretreatment with naloxone on anti-nociceptive action” value ([4]; oral dose between 100 and 400 mg/kilograms)?
**A.** not canceled out by pretreatment with naloxone

**Q.** And the anti-nociceptive action ([4]; rat)?
**A.** comparable to morphine

**Q.** What about the immobility time [5, 12] of the same compound?
**A.** significant increase in the immobility time

**Q.** And the “latency of pentobarbital sleep” value [5, 12]?
**A.** reduced latency of pentobarbital sleep

**Q.** What about the “dose observed in the literature” value ([5]; in the mouse) of the same compound?
**A.** 200 to 400 mg/kg

**Q.** What about the “motor coordination in the rotarod test” value ([5]; orally, mouse) of the same compound?
**A.** no effects on motor coordination

**Q.** Which brain/plasma ratio [6] does the source give for CC(=O)O[C@@H]1CC[C@@]2(C)[C@@H](CC[C@]3(C)[C@@H]2C(=O)C=C2[C@@H]4[C@@H](C)[C@H](C)CC[C@]4(C)CC[C@]23C)[C@@]1(C)C(=O)O [AKBA, acetyl-11-keto-beta-boswellic acid] here?
**A.** ~0.81

**Q.** Which brain/plasma ratio [6] does the source give for C[C@H]1[C@H](C)CC[C@]2(C)CC[C@]3(C)C(=CC(=O)[C@@H]4[C@@]5(C)CC[C@@H](O)[C@](C)(C(=O)O)[C@@H]5CC[C@]43C)[C@H]12 [KBA, 11-keto-beta-boswellic acid] here?
**A.** approximately 0.51

**Q.** Which “isoeffect dose per body weight taking into account mean absorption factor (60%)” value [1] does the source give for C=C(C)[C@H]1CC=C(C)CC1 [limonene, (R)-(+)-limonene] here?
**A.** 420 mg/kg

**Q.** What about the “isoeffect dose with respect to imipramine” value [1] of the same compound?
**A.** 70 mg

**Q.** What about the “intrinsic activity (full agonist action, dose-effect comparison with imipramine)” value [1] of the same compound?
**A.** 1

**Q.** And the antidepressant activity [1]?
**A.** evident antidepressant activity

**Q.** What about the “isoeffect dose per body weight” value [1] of the same compound?
**A.** 700 mg/kg

**Q.** What about the oral bioavailability [7] of the same compound?
**A.** 43.0%

**Q.** What about the “pulmonary uptake, of the administered quantity” value [8] of the same compound?
**A.** 70%

**Q.** And the immobility time [9]?
**A.** reduces significantly the immobility time

**Q.** For CN(C)CCCN1c2ccccc2CCc2ccccc21 [imipramine, imipramine chloride hydrate], which “total mean immobility time” value ([1]; imipramine 30 mg/Kg ip 30 minutes before the test, mean of all 9 tests, 45 mice) is on record?
**A.** 41.11±16.12

**Q.** And the solubility [10]?
**A.** 50 mg/mL

**Q.** What about the “patients with considerable success” value [11] of the same compound?
**A.** 19 out of 20

Source: US20160287545A1, “COMPOUND PARTICULARLY FOR TREATING DEPRESSION AND ANXIETY” (priority 2012, published 2016)
